According to PubChem BioAssay (NCI):
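Cultured in 96-well plates, cells were exposed to test compound for 48 hours across five concentrations. At the TGI there is no net growth.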

Experiments:
Assay in all cases: NCI tumour cell line growth inhibition, 48 h
KM20L2 colon = tested on: KM20L2 colon
RXF 393 renal = tested on: RXF 393 renal
UACC-62 melanoma = tested on: UACC-62 melanoma
SF-268 CNS = tested on: SF-268 CNS
LXFL 529 NSCLC = tested on: LXFL 529 NSCLC
OVCAR-5 ovarian = tested on: OVCAR-5 ovarian
HOP-92 NSCLC = tested on: HOP-92 NSCLC
NCI-H226 lung = tested on: NCI-H226 lung
HL-60(TB) leukemia = tested on: HL-60(TB) leukemia
SW-620 colon = tested on: SW-620 colon
LOX IMVI melanoma = tested on: LOX IMVI melanoma
NCI-H460 lung = tested on: NCI-H460 lung
SNB-19 CNS = tested on: SNB-19 CNS
NCI-H522 lung = tested on: NCI-H522 lung
EKVX NSCLC = tested on: EKVX NSCLC
A498 renal = tested on: A498 renal
COLO 205 colon = tested on: COLO 205 colon
HOP-18 NSCLC = tested on: HOP-18 NSCLC
786-0 renal = tested on: 786-0 renal
HCC-2998 colon = tested on: HCC-2998 colon
OVCAR-3 ovarian = tested on: OVCAR-3 ovarian
KM12 colon = tested on: KM12 colon
DLD-1 colon = tested on: DLD-1 colon
K-562 leukemia = tested on: K-562 leukemia
IGROV1 ovarian = tested on: IGROV1 ovarian
SF-539 CNS = tested on: SF-539 CNS
HCT-116 colon = tested on: HCT-116 colon
HT29 colon = tested on: HT29 colon
SK-MEL-28 melanoma = tested on: SK-MEL-28 melanoma
TK-10 renal = tested on: TK-10 renal
RPMI-8226 leukemia = tested on: RPMI-8226 leukemia
SNB-78 CNS = tested on: SNB-78 CNS
HOP-62 NSCLC = tested on: HOP-62 NSCLC
OVCAR-4 ovarian = tested on: OVCAR-4 ovarian
MALME-3M melanoma = tested on: MALME-3M melanoma
DMS 273 small cell lung = tested on: DMS 273 small cell lung
A549 NSCLC = tested on: A549 NSCLC
M14 melanoma = tested on: M14 melanoma
SK-MEL-2 melanoma = tested on: SK-MEL-2 melanoma
M19-MEL melanoma = tested on: M19-MEL melanoma
UO-31 renal = tested on: UO-31 renal
ACHN renal = tested on: ACHN renal
HCT-15 colon = tested on: HCT-15 colon
MOLT-4 leukemia = tested on: MOLT-4 leukemia
U251 CNS = tested on: U251 CNS
CCRF-CEM leukemia = tested on: CCRF-CEM leukemia
SF-295 CNS = tested on: SF-295 CNS
UACC-257 melanoma = tested on: UACC-257 melanoma
SK-OV-3 ovarian = tested on: SK-OV-3 ovarian
DMS 114 small cell lung = tested on: DMS 114 small cell lung
SR leukemia = tested on: SR leukemia
XF 498 CNS = tested on: XF 498 CNS
NCI-H23 lung = tested on: NCI-H23 lung
SN12C renal = tested on: SN12C renal
OVCAR-8 ovarian = tested on: OVCAR-8 ovarian
CAKI-1 renal = tested on: CAKI-1 renal
SNB-75 CNS = tested on: SNB-75 CNS
SK-MEL-5 melanoma = tested on: SK-MEL-5 melanoma
RXF-631 renal = tested on: RXF-631 renal

## NC(=S)N1N=C2c3ccccc3CC[C@H]2[C@@H]1c1cccs1
KM20L2 colon
  TGI: 62.9 µM
RXF 393 renal
  TGI: 83 µM
UACC-62 melanoma
  TGI: > 100 µM
SF-268 CNS
  TGI: > 100 µM
LXFL 529 NSCLC
  TGI: > 100 µM
OVCAR-5 ovarian
  TGI: > 100 µM
HOP-92 NSCLC
  TGI: > 100 µM
NCI-H226 lung
  TGI: > 100 µM
HL-60(TB) leukemia
  TGI: 42.8 µM
SW-620 colon
  TGI: > 100 µM
LOX IMVI melanoma
  TGI: > 100 µM
NCI-H460 lung
  TGI: > 100 µM
SNB-19 CNS
  TGI: > 100 µM
NCI-H522 lung
  TGI: 56.1 µM
EKVX NSCLC
  TGI: > 100 µM
A498 renal
  TGI: > 100 µM
COLO 205 colon
  TGI: 40 µM
HOP-18 NSCLC
  TGI: > 100 µM
786-0 renal
  TGI: > 100 µM
HCC-2998 colon
  TGI: > 100 µM
OVCAR-3 ovarian
  TGI: > 100 µM
KM12 colon
  TGI: > 100 µM
DLD-1 colon
  TGI: > 100 µM
K-562 leukemia
  TGI: 35.5 µM
IGROV1 ovarian
  TGI: > 100 µM
SF-539 CNS
  TGI: > 100 µM
HCT-116 colon
  TGI: > 100 µM
HT29 colon
  TGI: 73.3 µM
SK-MEL-28 melanoma
  TGI: > 100 µM
TK-10 renal
  TGI: > 100 µM
RPMI-8226 leukemia
  TGI: > 100 µM
SNB-78 CNS
  TGI: > 100 µM
HOP-62 NSCLC
  TGI: > 100 µM
OVCAR-4 ovarian
  TGI: > 100 µM
MALME-3M melanoma
  TGI: 80.2 µM
DMS 273 small cell lung
  TGI: 36.6 µM
A549 NSCLC
  TGI: > 100 µM
M14 melanoma
  TGI: 60.8 µM
SK-MEL-2 melanoma
  TGI: 79 µM
M19-MEL melanoma
  TGI: > 100 µM
UO-31 renal
  TGI: > 100 µM
ACHN renal
  TGI: > 100 µM
HCT-15 colon
  TGI: > 100 µM
MOLT-4 leukemia
  TGI: 94.5 µM
U251 CNS
  TGI: > 100 µM
CCRF-CEM leukemia
  TGI: 81.5 µM
SF-295 CNS
  TGI: 58.1 µM
UACC-257 melanoma
  TGI: > 100 µM
SK-OV-3 ovarian
  TGI: > 100 µM
DMS 114 small cell lung
  TGI: 61.1 µM
SR leukemia
  TGI: 63 µM
XF 498 CNS
  TGI: > 100 µM
NCI-H23 lung
  TGI: 87.9 µM
SN12C renal
  TGI: > 100 µM
OVCAR-8 ovarian
  TGI: > 100 µM

## N#CC(C#N)=CSc1ccccc1
KM20L2 colon
  TGI: > 100 µM
RXF 393 renal
  TGI: 45.2 µM
UACC-62 melanoma
  TGI: 82.2 µM
SF-268 CNS
  TGI: 54.1 µM
LXFL 529 NSCLC
  TGI: > 100 µM
OVCAR-5 ovarian
  TGI: 68.9 µM
HOP-92 NSCLC
  TGI: > 100 µM
CAKI-1 renal
  TGI: 74.1 µM
NCI-H226 lung
  TGI: 51.2 µM
HL-60(TB) leukemia
  TGI: > 100 µM
SW-620 colon
  TGI: > 100 µM
LOX IMVI melanoma
  TGI: 26 µM
NCI-H460 lung
  TGI: > 100 µM
SNB-19 CNS
  TGI: > 100 µM
SNB-75 CNS
  TGI: 74.8 µM
NCI-H522 lung
  TGI: 24.5 µM
EKVX NSCLC
  TGI: > 100 µM
SK-MEL-5 melanoma
  TGI: > 100 µM
COLO 205 colon
  TGI: 55.3 µM
HOP-18 NSCLC
  TGI: > 100 µM
786-0 renal
  TGI: 34.5 µM
OVCAR-3 ovarian
  TGI: > 100 µM
KM12 colon
  TGI: > 100 µM
DLD-1 colon
  TGI: 63.3 µM
K-562 leukemia
  TGI: > 100 µM
IGROV1 ovarian
  TGI: 35.7 µM
SF-539 CNS
  TGI: 42.3 µM
HCT-116 colon
  TGI: 76.3 µM
HT29 colon
  TGI: 98.2 µM
SK-MEL-28 melanoma
  TGI: 81.1 µM
TK-10 renal
  TGI: > 100 µM
RPMI-8226 leukemia
  TGI: > 100 µM
HOP-62 NSCLC
  TGI: > 100 µM
OVCAR-4 ovarian
  TGI: > 100 µM
DMS 273 small cell lung
  TGI: 65.4 µM
A549 NSCLC
  TGI: > 100 µM
M14 melanoma
  TGI: 66.8 µM
SK-MEL-2 melanoma
  TGI: 72.3 µM
UO-31 renal
  TGI: 39.5 µM
ACHN renal
  TGI: > 100 µM
HCT-15 colon
  TGI: > 100 µM
MOLT-4 leukemia
  TGI: > 100 µM
U251 CNS
  TGI: 52.4 µM
CCRF-CEM leukemia
  TGI: > 100 µM
SF-295 CNS
  TGI: > 100 µM
UACC-257 melanoma
  TGI: > 100 µM
SK-OV-3 ovarian
  TGI: > 100 µM
DMS 114 small cell lung
  TGI: 43 µM
SR leukemia
  TGI: > 100 µM
RXF-631 renal
  TGI: > 100 µM
XF 498 CNS
  TGI: > 100 µM
NCI-H23 lung
  TGI: > 100 µM
SN12C renal
  TGI: 59.8 µM
OVCAR-8 ovarian
  TGI: 37.1 µM
